Results: ChEMBL document CHEMBL1201862, “PubChem BioAssay data set” (2004)
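The compound was tested at five concentrations on cells cultured in 96-well plates, with a 48-hour exposure period. GI50 = concentration required for 50% inhibition of growth.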 Activity calls are given as the source filed them. No stated cut-off is given here; in the data, active = GI50 up to about 1.1 µM and inactive = higher.

Experiments:
Experiment in all cases: NCI anticancer screen, dose series, 48 h
HCC 2998 = system: HCC 2998
UACC-62 = system: UACC-62
SN12C = system: SN12C
OVCAR-5 = system: OVCAR-5
U-251 = system: U-251
SF-295 = system: SF-295
OVCAR-4 = system: OVCAR-4
CCRF-CEM = system: CCRF-CEM
SNB-19 = system: SNB-19
RPMI-8226 = system: RPMI-8226
SF-539 = system: SF-539
EKVX = system: EKVX
CAKI-1 = system: CAKI-1
COLO 205 = system: COLO 205
HOP-62 = system: HOP-62
TK-10 = system: TK-10
SF-268 = system: SF-268
OVCAR-8 = system: OVCAR-8
SK-MEL-28 = system: SK-MEL-28
HCT-116 = system: HCT-116
NCI/ADR-RES = system: NCI/ADR-RES
SK-MEL-2 = system: SK-MEL-2
SK-MEL-5 = system: SK-MEL-5
PC-3 = system: PC-3
DU-145 = system: DU-145
A549 = system: A549
MDA-N = system: MDA-N
SW-620 = system: SW-620
ACHN = system: ACHN
MDA-MB-435 = system: MDA-MB-435
K562 = system: K562
MCF7 = system: MCF7
MDA-MB-231 = system: MDA-MB-231
UO-31 = system: UO-31
SNB-75 = system: SNB-75
UACC-257 = system: UACC-257
OVCAR-3 = system: OVCAR-3
786-0 = system: 786-0
NCI-H23 = system: NCI-H23
BT-549 = system: BT-549
LOX IMVI = system: LOX IMVI
NCI-H226 = system: NCI-H226
HCT-15 = system: HCT-15
KM12 = system: KM12
HL-60 = system: HL-60
SK-OV-3 = system: SK-OV-3
NCI-H460 = system: NCI-H460
HT-29 = system: HT-29
NCI-H522 = system: NCI-H522
M14 = system: M14
IGROV-1 = system: IGROV-1
HOP-92 = system: HOP-92
A498 = system: A498
MOLT-4 = system: MOLT-4

How did the GI50 (HCC 2998) turn out when CC(C)(C)[Si](C)(C)OCC1OC(n2ccc(=O)[nH]c2=O)C(O[Si](C)(C)C(C)(C)C)[C@@]12O[C@H]2C(N)=O (some centres undefined) was run?
Its GI50 is 11.9 µM (inactive).

And the GI50 (UACC-62)?
Its GI50 is 18.7 µM (inactive).

And the GI50 (SN12C)?
The GI50 was 13 µM (inactive).

What about the GI50 (OVCAR-5) of the same compound?
The GI50 was 11.8 µM (inactive).

And the GI50 (U-251)?
The GI50 was 4.28 µM (inactive).

What about the GI50 (SF-295) of the same compound?
The GI50 was 4.56 µM (inactive).

What about the GI50 (OVCAR-4) of the same compound?
The GI50 was 18.5 µM (inactive).

What about the GI50 (CCRF-CEM) of the same compound?
The GI50 was > 10 µM (inactive).

What about the GI50 (SNB-19) of the same compound?
The GI50 was 10.9 µM (inactive).

What about the GI50 (RPMI-8226) of the same compound?
The GI50 was 6.17 µM (inactive).

And the GI50 (SF-539)?
Its GI50 is 3.05 µM (inactive).

What about the GI50 (EKVX) of the same compound?
The GI50 was 16.2 µM (inactive).

What about the GI50 (CAKI-1) of the same compound?
Its GI50 is 11.6 µM (inactive).

And the GI50 (COLO 205)?
The GI50 was 7.64 µM (inactive).

What about the GI50 (HOP-62) of the same compound?
Its GI50 is 13.8 µM (inactive).

What about the GI50 (TK-10) of the same compound?
The GI50 was 20.2 µM (inactive).

And the GI50 (SF-268)?
The GI50 was 9.2 µM (inactive).

What about the GI50 (OVCAR-8) of the same compound?
Its GI50 is 5.11 µM (inactive).

What about the GI50 (SK-MEL-28) of the same compound?
Its GI50 is 17.6 µM (inactive).

And the GI50 (HCT-116)?
The GI50 was 4.08 µM (inactive).

And the GI50 (NCI/ADR-RES)?
The GI50 was 8.57 µM (inactive).

What about the GI50 (SK-MEL-2) of the same compound?
The GI50 was 16.3 µM (inactive).

And the GI50 (SK-MEL-5)?
Its GI50 is 4.06 µM (inactive).

What about the GI50 (PC-3) of the same compound?
The GI50 was 5.61 µM (inactive).

What about the GI50 (DU-145) of the same compound?
Its GI50 is 4.03 µM (inactive).

What about the GI50 (A549) of the same compound?
The GI50 was 5.75 µM (inactive).

And the GI50 (MDA-N)?
Its GI50 is 5.37 µM (inactive).

And the GI50 (SW-620)?
Its GI50 is 6.01 µM (inactive).

What about the GI50 (ACHN) of the same compound?
The GI50 was 6.05 µM (inactive).

And the GI50 (MDA-MB-435)?
Its GI50 is 4.92 µM (inactive).

And the GI50 (K562)?
The GI50 was 7.38 µM (inactive).

What about the GI50 (MCF7) of the same compound?
Its GI50 is 3.97 µM (inactive).

What about the GI50 (MDA-MB-231) of the same compound?
The GI50 was 4.61 µM (inactive).

And the GI50 (UO-31)?
Its GI50 is 7.36 µM (inactive).

What about the GI50 (SNB-75) of the same compound?
Its GI50 is 10.1 µM (inactive).

What about the GI50 (UACC-257) of the same compound?
The GI50 was 26.2 µM (inactive).

What about the GI50 (OVCAR-3) of the same compound?
Its GI50 is 11.5 µM (inactive).

And the GI50 (786-0)?
Its GI50 is 5.11 µM (inactive).

What about the GI50 (NCI-H23) of the same compound?
Its GI50 is 12.2 µM (inactive).

And the GI50 (BT-549)?
Its GI50 is 18.5 µM (inactive).

What about the GI50 (LOX IMVI) of the same compound?
Its GI50 is 3.4 µM (inactive).

What about the GI50 (NCI-H226) of the same compound?
The GI50 was 0.445 µM (active).

And the GI50 (HCT-15)?
The GI50 was 5.38 µM.

And the GI50 (KM12)?
The GI50 was 7.67 µM (inactive).

And the GI50 (HL-60)?
The GI50 was 96.6 µM (inactive).

And the GI50 (SK-OV-3)?
The GI50 was 19 µM (inactive).

And the GI50 (NCI-H460)?
Its GI50 is 5.28 µM (inactive).

And the GI50 (HT-29)?
Its GI50 is 3.39 µM (inactive).

What about the GI50 (NCI-H522) of the same compound?
Its GI50 is 2.22 µM (inactive).

What about the GI50 (M14) of the same compound?
The GI50 was 11.3 µM (inactive).

And the GI50 (IGROV-1)?
The GI50 was 2.86 µM (inactive).

And the GI50 (HOP-92)?
Its GI50 is > 10 µM (inactive).

What about the GI50 (A498) of the same compound?
The GI50 was > 10 µM (inactive).

And the GI50 (MOLT-4)?
Its GI50 is 6.53 µM (inactive).
